Laboratory results: the supplement of paper PMC13380429

Columns and labels:
HepG2 [1] = assay: relative viability EC50 (midpoint between 100% and the lowest measured viability); higher = less toxic; settings: 72 h
Calu-3 [2] = assay: as above; settings: 72 h
Vero E6 [3] = assay: drug sensitivity score (DSS) for viability; higher = more toxic; extreme values may be limits of the assay; settings: 72 h
HepG2 [4] = assay: as above; settings: 72 h
Calu-3 [5] = assay: as above; settings: 72 h
Caco-2 [6] = assay: as above; settings: 72 h
U2OS [7] = assay: as above; settings: 72 h
[8] = test system: A549-ACE2 infected with SARS-CoV-2; assay: morphology score (similarity to uninfected cells); higher = more like uninfected cells; settings: 24 h
[9] = test system: A549-ACE2 infected with SARS-CoV-2; assay: SARS-CoV-2 infection rate relative to DMSO; higher = more infection; settings: 24 h
Vero E6 [10] = assay: cell viability relative to DMSO; higher = less toxic; settings: 72 h
HepG2 [11] = assay: as above; settings: 72 h
Calu-3 [12] = assay: as above; settings: 72 h
Caco-2 [13] = assay: as above; settings: 72 h
U2OS [14] = assay: as above; settings: 72 h
[15] = test system: A549-ACE2 infected with SARS-CoV-2; assay: cell count relative to DMSO; higher = less toxic; settings: 24 h
A549-ACE2 = assay: drug-induced phospholipidosis relative to tamoxifen; higher = more phospholipidosis
Caco-2 [16] = assay: relative viability EC50 (midpoint between 100% and the lowest measured viability); higher = less toxic; settings: 72 h
U2OS [17] = assay: as above; settings: 72 h
Vero E6 [18] = assay: as above; settings: 72 h

COc1cc(N2CCN(C)CC2)ccc1Nc1nccc(-c2cn(C)c3cnccc23)n1 [AZ191]
Settings	drug sensitivity score	relative viability EC50 [nM]
Caco-2 [6]	1.9	–
Calu-3 [2]	–	> 10000
Calu-3 [5]	0	–
HepG2 [1]	–	1900
HepG2 [4]	6.4	–
U2OS [7]	1.5	–
Vero E6 [3]	2.6	–

Settings	SARS-CoV-2 infection rate, [9] [%]	cell count, [15] [%]	cell viability, Caco-2 [13] [%]	cell viability, Calu-3 [12] [%]	cell viability, HepG2 [11] [%]	cell viability, U2OS [14] [%]	cell viability, Vero E6 [10] [%]	morphology score, [8]
1 nM	–	–	96.7	96.4	97.3	97.9	93.6	–
10 nM	–	–	94.4	93.6	93.8	104	101	–
0.1 µM	95	106	–	–	–	–	–	0.14
100 nM	–	–	96.6	93.3	98.4	99.6	98.5	–
0.3 µM	103	102	–	–	–	–	–	0.19
1 µM	95	116	–	–	–	–	–	0.38
1000 nM	–	–	98.5	101	87.1	103	95	–
3 µM	53	120	–	–	–	–	–	0.74
10000 nM	–	–	64.4	102	22.3	64.5	62.6	–

drug-induced phospholipidosis [%], A549-ACE2
Settings	0.3 µM	0.833333 µM	3.33333 µM	6.66667 µM	10 µM
24 h	1.95	-3.91	0.16	32.4	35.2
48 h	-0.41	-2.25	-2.09	41.3	–
72 h	3.05	-1.34	-1.23	–	–

CCN1CCN(c2ccc(Nc3cc(N(C)C(=O)Nc4c(Cl)c(OC)cc(OC)c4Cl)ncn3)cc2)CC1 [NVP-BGJ398]
Settings	drug sensitivity score	relative viability EC50 [nM]
Caco-2 [6]	1.5	–
Caco-2 [16]	–	> 10000
Calu-3 [2]	–	> 10000
Calu-3 [5]	0	–
HepG2 [4]	1.1	–
U2OS [7]	0.1	–
U2OS [17]	–	> 10000
Vero E6 [3]	2.4	–

Settings	SARS-CoV-2 infection rate, [9] [%]	cell count, [15] [%]	cell viability, Caco-2 [13] [%]	cell viability, Calu-3 [12] [%]	cell viability, HepG2 [11] [%]	cell viability, U2OS [14] [%]	cell viability, Vero E6 [10] [%]	morphology score, [8]
1 nM	–	–	109	116	111	104	91.7	–
10 nM	–	–	102	102	100	95.1	101	–
0.1 µM	99	91	–	–	–	–	–	0.05
100 nM	–	–	103	106	110	98.1	90.5	–
0.3 µM	100	91	–	–	–	–	–	-0.02
1 µM	110	98	–	–	–	–	–	0.02
1000 nM	–	–	95.4	99.4	106	89.5	90.8	–
3 µM	97	93	–	–	–	–	–	0.2
10000 nM	–	–	76.1	89.8	68	90.5	66.2	–

drug-induced phospholipidosis [%], A549-ACE2
Settings	0.3 µM	0.833333 µM	3.33333 µM	6.66667 µM	10 µM	30 µM
24 h	7.01	-3.2	0.41	0.28	8.33	40.8
48 h	5.03	-4.72	-2.05	0.17	2.69	25.9
72 h	3.12	-9.17	-6.95	-2.87	-1.22	27.1

S=C(S)N1CCCC1 [pyrrolidine-dithiocarbamate]
Settings	drug sensitivity score	relative viability EC50 [nM]
Caco-2 [6]	14.2	–
Caco-2 [16]	–	368
Calu-3 [2]	–	3140
Calu-3 [5]	3.2	–
HepG2 [1]	–	3530
HepG2 [4]	4.4	–
U2OS [7]	2.8	–
Vero E6 [3]	1.6	–

Settings	SARS-CoV-2 infection rate, [9] [%]	cell count, [15] [%]	cell viability, Caco-2 [13] [%]	cell viability, Calu-3 [12] [%]	cell viability, HepG2 [11] [%]	cell viability, U2OS [14] [%]	cell viability, Vero E6 [10] [%]	morphology score, [8]
1 nM	–	–	101	93.7	95.5	101	102	–
10 nM	–	–	101	94.2	93.4	99.3	106	–
0.1 µM	108	101	–	–	–	–	–	-0.05
100 nM	–	–	90.2	102	96	102	101	–
0.3 µM	93	105	–	–	–	–	–	0.28
1 µM	85	103	–	–	–	–	–	0.32
1000 nM	–	–	30.4	99.8	106	95.4	103	–
3 µM	83	104	–	–	–	–	–	0.39
10000 nM	–	–	15.7	41.7	13.1	58.4	63	–

drug-induced phospholipidosis [%], A549-ACE2
Settings	0.3 µM	0.833333 µM	6.66667 µM	10 µM	30 µM
24 h	1.65	-0.57	5.92	3.64	-1.59
48 h	1.79	0.61	–	–	–
72 h	3.8	0.446	–	–	–

Cc1ccccc1N(C)C(=O)c1ccc([S+]([O-])c2nccs2)c([N+](=O)[O-])c1 (stereo unspecified)
Settings	drug sensitivity score	relative viability EC50 [nM]
Caco-2 [6]	8.4	–
Caco-2 [16]	–	1860
Calu-3 [2]	–	3360
Calu-3 [5]	5.2	–
HepG2 [1]	–	2290
HepG2 [4]	7.3	–
U2OS [7]	12.5	–
U2OS [17]	–	805
Vero E6 [3]	7.5	–
Vero E6 [18]	–	2190

Settings	SARS-CoV-2 infection rate, [9] [%]	cell count, [15] [%]	cell viability, Caco-2 [13] [%]	cell viability, Calu-3 [12] [%]	cell viability, HepG2 [11] [%]	cell viability, U2OS [14] [%]	cell viability, Vero E6 [10] [%]	morphology score, [8]
1 nM	–	–	96.9	102	106	98.5	103	–
10 nM	–	–	103	97.6	102	99.5	98.2	–
0.1 µM	101	99	–	–	–	–	–	-0.04
100 nM	–	–	98.5	102	95.1	95.6	100	–
0.3 µM	105	104	–	–	–	–	–	0.06
1 µM	92	99	–	–	–	–	–	0.22
1000 nM	–	–	82.8	103	89.5	41.7	88.1	–
3 µM	74	74	–	–	–	–	–	0.22
10000 nM	–	–	0.2	2.3	0.2	0	0.1	–

drug-induced phospholipidosis [%], A549-ACE2
Settings	24 h	48 h	72 h
0.3 µM	6.61	5.74	-1.4
0.833333 µM	10.2	5.8	-1.83
